{
  "source": "ChEMBL document CHEMBL1158269",
  "about": "“Ehretianone, a novel quinonoid xanthene from Ehretia buxifolia with antisnake venom activity” (J Nat Prod, 1996)",
  "key": {"[1]": {"assay": "Antisnake venom activity against Echis carinatus venom assessed as mortality at 1.25 mg/kg preincubated for 30 mins with venom LD50 before subcutaneous administration to Swiss albino mouse measured within 24 hrs", "type": "functional"}, "[2]": {"assay": "Curative activity against Echis carinatus venom assessed as mortality at 3.75 mg/kg, sc administered 45 mins after injection of venom to Swiss albino mouse measured within 24 hrs", "type": "functional", "conditions": "route subcutaneous"}, "[3]": {"assay": "Antisnake venom activity against Echis carinatus venom assessed as mortality at 2.50 mg/kg preincubated for 30 mins with venom LD50 before subcutaneous administration to Swiss albino mouse measured within 24 hrs", "type": "functional", "conditions": "dose 2.5 mg/kg"}, "[4]": {"assay": "Antisnake venom activity against Echis carinatus venom assessed as mortality at 3.75 mg/kg preincubated for 30 mins with venom LD50 before subcutaneous administration to Swiss albino mouse measured within 24 hrs", "type": "functional"}, "[5]": {"assay": "Curative activity against Echis carinatus venom assessed as mortality at 3.75 mg/kg, sc administered 5 mins after injection of venom to Swiss albino mouse measured within 24 hrs", "type": "functional", "conditions": "route subcutaneous"}, "[6]": {"assay": "Curative activity against Echis carinatus venom assessed as mortality at 3.75 mg/kg, sc administered 30 mins after injection of venom to Swiss albino mouse measured within 24 hrs", "type": "functional", "conditions": "route subcutaneous"}, "[7]": {"system": "Mus musculus", "assay": "Toxicity in Swiss albino mouse up to 100 mg/kg, sc", "type": "organism-based", "parameters": "dose 100 mg/kg, route subcutaneous", "conditions": "in vivo"}, "[8]": {"assay": "Prophylactic activity against Echis carinatus venom assessed as mortality at 3.75 mg/kg, sc administered 30 mins before injection of venom to Swiss albino mouse measured within 24 hrs", "type": "functional", "conditions": "route subcutaneous"}},
  "data": [
    {"smiles": "CC(C)=CC[C@]12C(=O)C=CC(=O)[C@]13CC(C)=C[C@H]2c1cc(O)ccc1O3", "note": "[EHRETIANONE]", "values": [
      {"measurement": "Activity", "setting": "[1]", "result": 43.3, "unit": "%"},
      {"measurement": "Activity", "setting": "[2]", "result": 45, "unit": "%"},
      {"measurement": "Activity", "setting": "[3]", "result": 26.7, "unit": "%"},
      {"measurement": "Activity", "setting": "[4]", "result": 13.3, "unit": "%"},
      {"measurement": "Activity", "setting": "[5]", "result": 21.7, "unit": "%"},
      {"measurement": "Activity", "setting": "[6]", "result": 38.3, "unit": "%"},
      {"measurement": "Activity", "setting": "[7]", "result": "Non-toxic"},
      {"measurement": "Activity", "setting": "[8]", "result": 16.7, "unit": "%"}
    ]}
  ]
}
